In patent publication US20090023810A1, “METHODS OF TRANSLATION AND/OR INFLAMMATION BLOCKADE” (priority 2007, published 2009):

Legend:
HeLa cells [1] = experiment: Ribosome (polysome) profiling with sucrose gradient in HeLa cells; format: cell-based; settings: SA 400 μM 30 minutes; 15d-PGJ2 or PGE2 50 μM 1 hour, FIG. 4C
Method: Experiments were performed as described elsewhere (Kedersha et al., 2000, which is hereby incorporated by reference for all purposes as if fully set forth herein) using a 0.5-1.5 M sucrose gradient.
It is well known that inhibition of translation and SG formation alters the polysome profile. HeLa cells were mock-treated or treated with SA (400 μM) for 30 minutes, 15d-PGJ2 (50 μM) for 1 hour, or PGE2 (50 μM) for 1 hour. A sucrose gradient experiment was performed as described above, and the obtained results are shown in FIG. 4C, wherein the lines show observance at 254 nm.

eIF2α = experiment: Phosphorylated eIF2α levels in HeLa cell lysates (in vitro translation mixtures), Western blot; format: biochemical; settings: FIG. 5B lanes 2-8
Method: In FIG. 5B, HeLa lysates that were pretreated with vehicle (1) or with indicated chemicals (2-9) for 30 minutes at indicated concentrations, a capped Renilla luciferase mRNA (40 nM) was added to the translation mixtures, and then incubated at 30° C. for 1 hour (grey columns). White columns show the effects of the same set of chemicals added together with the reporter mRNA during 1 hour in vitro translation. Relative luciferase activities (mean values) are depicted by columns. Phosphorylated eIF2α levels were monitored by Western-blot analyses (bottom panel). […] The molecular basis of this phenomenon remains to be determined.
This would be the reason why translation is not inhibited by SA in the HeLa cell lysates (FIG. 5B, lane 8) unlike in the in vivo system where eIF2α is phosphorylated by SA ([…]).

HeLa cells [2] = experiment: In vivo [35S]-methionine labeling of newly synthesized proteins in HeLa cells; format: cell-based; settings: FIG. 4A (30 minutes, concentrations) and FIG. 4B (90 μM, times)
Method: HeLa cells were treated with various agents and for various times, as indicated in […] and the brief description thereof. HeLa Cells on 60-mm culture dishes were then washed twice with phosphate-buffered saline (PBS) and incubated in methionine-free Dulbecco's Modified eagle's medium (DMEM) (BMS) medium for 1 hour. Cells were incubated for 30 minutes after supplementation with [^35S]-methionine ([^35S]-Met) ([…]; NEN Life Science Products), washed twice with ice-cold PBS, harvested, and then lysed with the NP-40 lysis buffer. The cell lysates were centrifuged and the protein concentrations in the cell lysates were measured using the Bradford assay method. To quantify newly synthesized proteins, cell lysates labeled with [^35S]-Met were precipitated with 10% trichloroacetic acid (TCA) (w/v), and the precipitated proteins were then dissolved in water and analyzed by a liquid scintillation assay (Packard).
As SG formation is accompanied by translational blockade, the effects of 15d-PGJ2 on protein synthesis were investigated. In FIG. 4A, HeLa cells grown on 60-mm dishes up to about 70-80% confluence were mock-treated (1) or treated with PGA1 (2, 3, and 4), 15d-PGJ2 (5 and 6 and 7), or PGE2 (8, 9, and 10) at the indicated concentrations in FIG. 4A for 30 minutes. Then in vivo labeling of newly synthesized proteins was performed as described above. 4200 CPM was obtained from the TCA-precipitated control sample (lane 1), and phosphorylated eIF2α levels were monitored by Western-blot analyses (bottom panel). In FIG. 4B, cells were mock-treated (1), treated with SA (400 μM) (2 and 3), with PGA1 (90 μM) (4-6), with 15d-PGJ2 (90 μM) (7-9), and with PGE2 (90 μM) (10-12) as indicated times. Newly synthesized proteins were measured as panel (A). 4500 CPM was obtained from the TCA-precipitated control sample (lane 1). Phosphorylated eIF2α levels were monitored by Western-blot analyses (bottom panel) and the obtained results are shown in FIG. 4B.

TRAF2 = experiment: Sequestration of TNF-α signaling molecules into SGs in HeLa cells, immunocytochemistry; format: cell-based; settings: 50 μM, 1 hour; for Subcellular localization of TRAF2: FIG. 1E
Method: (b, f, and j), 50 μM of PGE2 (c, g, and k), or 15d-PGJ2 (d, h, and 1) for 1 hour. Immunocytochemistry was performed using eIF3b and TRAF2 antibodies, wherein arrows indicate SGs. Subcellular localizations of TRAF2 before (FIG. 1E, panels a, e and i) and after induction of SG formation by heat (FIG. 1E, panels b, f and j) or 15d-PGJ2 (FIG. 1E, panels d, h and l) were monitored by an immunocytochemical method. This was because the sequestration of TRAF2 into SGs induced by heat has previously been reported (Kim et al., 2005).
The inventors also investigated the localization of RIP, which directly interacts with TRAF2 and conveys TNF-α signal downstream of TRAF2 (Jackson-Bernitsas et al., 2007), and that of IKK α/β which conveys TNF-α signal downstream of RIP and is also known as a target of 15d-PGJ2 (Cheng and Baltimore, 1996). […] In FIG. 10A, HeLa cells were mock-treated (left panels) or treated with 50 μM of 15d-PGJ2 (right panels) for 1 hour. Immunocytochemical analyses were performed with the indicated antibodies: TRAF2 and eIF3b (upper panels), RIP and TRAF2 (middle panels), IKKα/β and TIA-1 (lower panels). Arrows indicate SGs.

HeLa cells [3] = experiment: Stress granule (SG) formation in HeLa cells, immunocytochemistry; format: cell-based; settings: HeLa
Method: The immunocytochemical analyses of proteins were performed as described elsewhere (Kim et al., 2005, which is hereby incorporated by reference for all purposes as if fully set forth herein).
HeLa cells that were mock-treated (Mock) or treated with PGA1, 15d-PGJ2, PGE2, SA, arachidonic acid (AA), ciglitazone (Ci), troglitazone (Tro), and rosiglitazone (Rosi) (at indicated concentrations) for 30 minutes.
HeLa cells were treated with lovastatin (100 μM), lipoxin A4 (LXA4, 10 μM), lipoxin B4 (LXB4, 10 μM), epi-lipoxin A4 (epi-LxA4, 10 μM), TGF-β (100 ng/ml), interleukin-10 (IL-10, 100 ng/ml) for 1 hour.
Emetine freezes ribosomes in the polysomal state and inhibits SG formation (Anderson and Kedersha, 2006). HeLa cells that were pretreated for 1 hour with 10 μg/ml of emetine and then treated with 15d-PGJ2 (50 μM) for 1 hour, and subjected to immunocytochemical analyses.
The amounts of 15d-PGJ2 required for SG formation were measured.

[4] = 30 minutes, TIA-1 antibody, FIG. 1A

SMILES	Polysome profile / ribosomal shift (HeLa cells [1])	eIF2α phosphorylation (eIF2α)	Total protein synthesis (35S-methionine labeling) (HeLa cells [2])	Subcellular localization of TRAF2 (TRAF2)	Sequestration of RIP and IKK α/β into SGs (TRAF2; FIG. 10A)	SG formation (HeLa cells [3]; 10 μM, 12-24 hours, FIG. 1D)	SG formation (HeLa cells [3]; [4])	SG inducer strength compared (HeLa cells [3]; FIG. 1A panel b vs c)
CCCCC/C=C/C=C1/C(=O)C=C[C@@H]1C/C=C\CCCC(=O)O [15d-PGJ2, 15-deoxy-delta 12,14-prostaglandin J2]	Ribosomal shift to the subunit state was also observed	No increase of eIF2α phosphorylation	inhibited by 15d-PGJ2 in a concentration-dependent manner	migration of TRAF2 to SGs induced by 15d-PGJ2 was observed	Neither RIP nor IKK α/β was sequestered into SGs	SGs were formed	induced SG formation	stronger SG inducer than PGA1
CCCCC[C@H](O)/C=C/[C@H]1[C@H](O)CC(=O)[C@@H]1C/C=C\CCCC(=O)O [PGE2, prostaglandin E2]	did not induce a ribosomal shift	No increase of eIF2α phosphorylation	did not block translation	no change in the subcellular localization of TRAF2	–	–	did not induce SG formation	–
